{
  "source": "paper PMC3261785",
  "about": "(Journal of Medicinal Chemistry, 2011)",
  "note": "Entries after “also recorded” stand apart in the source; their conditions may differ.",
  "data": [
    {"molecular_target": "human A2AAR (Homo sapiens, UniProt P29274)", "sequence (P29274 whole entry)": "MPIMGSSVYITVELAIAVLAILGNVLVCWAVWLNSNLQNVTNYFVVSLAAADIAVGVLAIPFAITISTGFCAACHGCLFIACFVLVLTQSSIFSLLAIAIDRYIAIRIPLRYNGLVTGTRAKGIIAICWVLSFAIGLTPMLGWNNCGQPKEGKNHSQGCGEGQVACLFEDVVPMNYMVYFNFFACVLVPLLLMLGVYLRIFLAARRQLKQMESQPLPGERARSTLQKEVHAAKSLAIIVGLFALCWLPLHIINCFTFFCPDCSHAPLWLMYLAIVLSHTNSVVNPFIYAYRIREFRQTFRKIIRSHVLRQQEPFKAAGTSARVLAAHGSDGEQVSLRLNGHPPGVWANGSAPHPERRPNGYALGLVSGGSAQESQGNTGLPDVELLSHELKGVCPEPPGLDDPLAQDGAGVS", "assay": "Radioligand binding assay at A2AAR, membranes of HEK-293 cells, [3H]16", "settings": "comparison within the amino acid conjugate series and with parent 16", "values": [
      {"smiles": "CCNC(=O)[C@H]1O[C@@H](n2cnc3c(N)nc(NCCc4ccc(CCC(=O)N[C@H](CCCNC(=N)N)C(=O)O)cc4)nc32)[C@H](O)[C@@H]1O", "note": "[Compound 36]", "Relative A2AAR binding affinity (in words)": "some gain in affinity"},
      {"smiles": "CCNC(=O)[C@H]1O[C@@H](n2cnc3c(N)nc(NCCc4ccc(CCC(=O)N[C@H](Cc5ccccc5)C(=O)O)cc4)nc32)[C@H](O)[C@@H]1O", "note": "[Compound 38]", "Relative A2AAR binding affinity (in words)": "most potent; also recorded: some gain in affinity"},
      {"smiles": "CCNC(=O)[C@H]1O[C@@H](n2cnc3c(N)nc(NCCc4ccc(CCC(=O)N[C@H](Cc5c[nH]cn5)C(=O)O)cc4)nc32)[C@H](O)[C@@H]1O", "note": "[Compound 42]", "Relative A2AAR binding affinity (in words)": "most potent; also recorded: some gain in affinity"}
    ]}
  ]
}
